Experimental data taken from ChEMBL document CHEMBL5370549, “Optimization and evaluation of pyridinyl vinyl sulfones as Nrf2 activator for the antioxidant and anti-inflammatory effects” (Eur J Med Chem, 2023).

What was measured:
[1] = biological target: T1, Nuclear factor erythroid 2-related factor 2 (Homo sapiens, UniProt Q16236); assay: Activation of Nrf2 in human U2OS cells co-expressing Keap1 assessed as induction of Nrf2 nuclear translocation incubated for 6 hrs by PathHunter chemiluminescence based analysis; type: cell-based
T1 sequence (Q16236 whole entry): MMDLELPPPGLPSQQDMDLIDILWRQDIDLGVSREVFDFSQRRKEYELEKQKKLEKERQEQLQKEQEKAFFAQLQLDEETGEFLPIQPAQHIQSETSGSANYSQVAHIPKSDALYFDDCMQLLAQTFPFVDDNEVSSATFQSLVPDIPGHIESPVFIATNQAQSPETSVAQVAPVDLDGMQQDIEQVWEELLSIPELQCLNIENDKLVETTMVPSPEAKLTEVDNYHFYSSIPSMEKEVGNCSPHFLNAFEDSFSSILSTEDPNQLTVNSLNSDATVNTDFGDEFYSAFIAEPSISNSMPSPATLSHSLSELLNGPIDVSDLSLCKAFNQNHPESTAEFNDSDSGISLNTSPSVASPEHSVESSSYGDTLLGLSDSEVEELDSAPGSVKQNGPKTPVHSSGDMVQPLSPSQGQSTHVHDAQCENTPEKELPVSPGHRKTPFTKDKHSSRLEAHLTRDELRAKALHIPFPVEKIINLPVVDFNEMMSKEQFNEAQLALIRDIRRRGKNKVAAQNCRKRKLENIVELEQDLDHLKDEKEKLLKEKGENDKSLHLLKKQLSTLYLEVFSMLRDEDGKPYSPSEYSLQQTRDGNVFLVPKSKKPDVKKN

CYP1A2 = biological target: T2, CYP1A2 (Homo sapiens, UniProt P05177); assay: Inhibition of CYP1A2 (unknown origin) assessed as enzyme activity at 10 uM relative to control; type: ADME; set-up: scale not given: the % may be the effect or the level left; conditions: read-out: Activity
T2 sequence (P05177 whole entry): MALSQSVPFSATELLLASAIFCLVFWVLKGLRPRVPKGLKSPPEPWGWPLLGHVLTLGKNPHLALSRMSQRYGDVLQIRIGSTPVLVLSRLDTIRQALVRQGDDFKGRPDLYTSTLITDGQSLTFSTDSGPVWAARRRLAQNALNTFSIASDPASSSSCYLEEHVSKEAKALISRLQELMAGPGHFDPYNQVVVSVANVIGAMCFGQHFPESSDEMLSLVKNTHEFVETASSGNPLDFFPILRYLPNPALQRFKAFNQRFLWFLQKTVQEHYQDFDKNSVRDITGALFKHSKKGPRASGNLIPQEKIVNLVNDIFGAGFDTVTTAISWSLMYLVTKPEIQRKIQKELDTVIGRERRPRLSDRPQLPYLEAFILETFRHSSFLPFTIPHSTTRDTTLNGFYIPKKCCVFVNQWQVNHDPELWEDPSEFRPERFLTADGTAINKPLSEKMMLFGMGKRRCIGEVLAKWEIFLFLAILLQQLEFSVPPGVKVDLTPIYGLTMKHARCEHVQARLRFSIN

CYP3A4 = CYP3A4 (Homo sapiens, UniProt P08684); assay: Inhibition of CYP3A4 (unknown origin) assessed as enzyme activity at 10 uM relative to control; type: ADME; set-up: scale not given: the % may be the effect or the level left; conditions: read-out: Activity
CYP2C9 = CYP2C9 (Homo sapiens, UniProt P11712); assay: Inhibition of CYP2C9 (unknown origin) assessed as enzyme activity at 10 uM relative to control; type: ADME; set-up: scale not given: the % may be the effect or the level left; conditions: read-out: Activity
CYP2C19 = CYP2C19 (Homo sapiens, UniProt P33261); assay: Inhibition of CYP2C19 (unknown origin) assessed as enzyme activity at 10 uM relative to control; type: ADME; set-up: scale not given: the % may be the effect or the level left; conditions: read-out: Activity
CYP2D6 = CYP2D6 (Homo sapiens, UniProt P10635); assay: Inhibition of CYP2D6 (unknown origin) assessed as enzyme activity at 10 uM relative to control; type: ADME; set-up: scale not given: the % may be the effect or the level left; conditions: read-out: Activity
[2] = Metabolic stability of the compound in human liver microsomes assessed as parent compound remaining measured after 30 mins; type: ADME, Microsome; conditions: read-out: Stability
[3] = Metabolic stability of the compound in mouse liver microsomes assessed as parent compound remaining measured after 30 mins; type: ADME, Microsome; conditions: read-out: Stability
[4] = Metabolic stability of the compound in human plasma assessed as parent compound remaining measured after 30 mins; type: ADME, cell-free; conditions: read-out: Stability
[5] = Metabolic stability of the compound in rat plasma assessed as parent compound remaining measured after 30 mins; type: ADME, cell-free; conditions: read-out: Stability

Chain of CYP2C19 (P33261 whole entry): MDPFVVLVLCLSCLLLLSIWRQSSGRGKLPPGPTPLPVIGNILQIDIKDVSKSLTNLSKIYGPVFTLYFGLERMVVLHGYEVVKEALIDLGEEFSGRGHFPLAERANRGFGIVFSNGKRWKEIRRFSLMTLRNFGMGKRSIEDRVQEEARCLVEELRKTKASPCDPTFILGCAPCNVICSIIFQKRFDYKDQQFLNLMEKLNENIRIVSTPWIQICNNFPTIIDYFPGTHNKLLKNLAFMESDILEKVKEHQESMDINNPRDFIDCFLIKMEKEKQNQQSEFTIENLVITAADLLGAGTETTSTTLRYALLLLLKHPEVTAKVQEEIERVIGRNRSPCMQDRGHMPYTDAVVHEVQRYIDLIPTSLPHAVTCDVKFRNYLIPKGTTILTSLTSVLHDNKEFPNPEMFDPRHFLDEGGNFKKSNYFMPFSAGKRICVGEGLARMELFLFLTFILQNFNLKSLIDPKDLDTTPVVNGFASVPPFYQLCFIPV
Chain of CYP3A4 (P08684 whole entry): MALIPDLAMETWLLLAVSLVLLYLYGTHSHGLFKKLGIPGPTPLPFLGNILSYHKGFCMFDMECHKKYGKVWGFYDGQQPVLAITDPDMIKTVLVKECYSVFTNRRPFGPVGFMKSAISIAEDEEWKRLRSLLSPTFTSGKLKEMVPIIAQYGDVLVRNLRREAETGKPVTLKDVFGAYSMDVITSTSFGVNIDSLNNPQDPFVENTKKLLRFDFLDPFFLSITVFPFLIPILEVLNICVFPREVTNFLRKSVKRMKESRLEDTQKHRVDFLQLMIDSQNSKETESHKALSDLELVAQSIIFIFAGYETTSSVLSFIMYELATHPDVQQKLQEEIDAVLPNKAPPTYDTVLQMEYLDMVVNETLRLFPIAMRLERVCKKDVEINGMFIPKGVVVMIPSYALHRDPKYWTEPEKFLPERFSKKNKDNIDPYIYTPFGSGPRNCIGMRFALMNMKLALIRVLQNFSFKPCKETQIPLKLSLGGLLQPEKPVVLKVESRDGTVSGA
Chain of CYP2C9 (P11712 whole entry): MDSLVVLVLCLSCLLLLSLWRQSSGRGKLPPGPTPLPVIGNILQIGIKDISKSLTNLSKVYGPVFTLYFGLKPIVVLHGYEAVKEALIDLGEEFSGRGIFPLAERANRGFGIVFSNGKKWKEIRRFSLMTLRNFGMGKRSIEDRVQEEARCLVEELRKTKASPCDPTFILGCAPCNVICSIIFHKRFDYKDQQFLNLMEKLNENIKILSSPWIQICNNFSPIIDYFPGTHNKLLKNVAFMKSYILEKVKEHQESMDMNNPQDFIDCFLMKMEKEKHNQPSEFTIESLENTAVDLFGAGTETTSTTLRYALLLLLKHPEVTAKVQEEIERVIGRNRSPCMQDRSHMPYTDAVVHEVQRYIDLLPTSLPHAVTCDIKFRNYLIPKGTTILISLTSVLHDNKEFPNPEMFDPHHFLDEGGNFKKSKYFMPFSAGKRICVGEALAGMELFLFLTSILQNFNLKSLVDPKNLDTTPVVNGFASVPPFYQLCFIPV
Chain of CYP2D6 (P10635 whole entry): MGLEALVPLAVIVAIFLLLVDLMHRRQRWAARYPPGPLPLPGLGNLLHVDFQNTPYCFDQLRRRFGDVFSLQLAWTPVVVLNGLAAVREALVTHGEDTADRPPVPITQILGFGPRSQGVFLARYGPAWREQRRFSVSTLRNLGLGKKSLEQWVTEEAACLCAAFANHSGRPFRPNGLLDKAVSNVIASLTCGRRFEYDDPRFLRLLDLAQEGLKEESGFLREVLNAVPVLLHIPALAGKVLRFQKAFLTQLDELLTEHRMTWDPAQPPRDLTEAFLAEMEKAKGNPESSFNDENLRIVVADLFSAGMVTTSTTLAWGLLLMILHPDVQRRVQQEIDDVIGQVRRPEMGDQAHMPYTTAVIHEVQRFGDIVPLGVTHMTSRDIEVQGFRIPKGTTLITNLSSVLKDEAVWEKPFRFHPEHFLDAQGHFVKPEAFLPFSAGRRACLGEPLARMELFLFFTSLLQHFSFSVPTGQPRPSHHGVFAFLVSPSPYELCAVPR

COc1cccnc1S(=O)(=O)/C=C/c1ncccc1C(F)(F)F
EC50 [1]: 107 nM
activity at 10 µM (CYP1A2): 72.6%
activity at 10 µM (CYP3A4): 36.4%
activity at 10 µM (CYP2C9): 69.7%
activity at 10 µM (CYP2C19): 60.5%
activity at 10 µM (CYP2D6): > 99%
remaining at 0.5 h [2]: 87.8%
remaining at 0.5 h [3]: 64.7%
remaining at 0.5 h [4]: 94%
remaining at 0.5 h [5]: 84.1%

COc1cccc(S(=O)(=O)/C=C/c2ncccc2C(F)(F)F)n1
EC50 [1]: 194 nM
activity at 10 µM (CYP1A2): 18.2%
activity at 10 µM (CYP3A4): 32.5%
activity at 10 µM (CYP2C9): 81.9%
activity at 10 µM (CYP2C19): 15.1%
activity at 10 µM (CYP2D6): > 99%
remaining at 0.5 h [2]: 38.8%
remaining at 0.5 h [3]: 4%
remaining at 0.5 h [4]: 94.2%
remaining at 0.5 h [5]: 82.7%

COc1cccnc1S(=O)(=O)/C=C/c1ccccc1F
EC50 [1]: 801 nM
activity at 10 µM (CYP1A2): 79.4%
activity at 10 µM (CYP3A4): 89.8%
activity at 10 µM (CYP2C9): 79.7%
activity at 10 µM (CYP2C19): 68.4%
activity at 10 µM (CYP2D6): 98.8%
remaining at 0.5 h [2]: 89.4%
remaining at 0.5 h [3]: 63.6%
remaining at 0.5 h [4]: 95.9%
remaining at 0.5 h [5]: 93%

COc1ccnc(S(=O)(=O)/C=C/c2ncccc2Cl)c1
EC50 [1]: 30 nM
activity at 10 µM (CYP1A2): 69.9%
activity at 10 µM (CYP3A4): 70.9%
activity at 10 µM (CYP2C9): 76.1%
activity at 10 µM (CYP2C19): 27.6%
activity at 10 µM (CYP2D6): 100%
remaining at 0.5 h [2]: 61.7%
remaining at 0.5 h [3]: 36.8%
remaining at 0.5 h [4]: 95%
remaining at 0.5 h [5]: 65.9%

COc1cccc(S(=O)(=O)/C=C/c2ccccc2Cl)n1
EC50 [1]: 231 nM
activity at 10 µM (CYP1A2): 6.73%
activity at 10 µM (CYP3A4): 28%
activity at 10 µM (CYP2C9): > 99%
activity at 10 µM (CYP2C19): 7.7%
activity at 10 µM (CYP2D6): 97.6%
remaining at 0.5 h [2]: 13.8%
remaining at 0.5 h [3]: 4.4%
remaining at 0.5 h [4]: > 99%
remaining at 0.5 h [5]: 98.9%

COc1ccnc(S(=O)(=O)/C=C/c2ccc(Cl)nc2)c1
EC50 [1]: 914 nM
activity at 10 µM (CYP1A2): 83%
activity at 10 µM (CYP3A4): > 99%
activity at 10 µM (CYP2C9): 91.7%
activity at 10 µM (CYP2C19): 17.9%
activity at 10 µM (CYP2D6): > 99%
remaining at 0.5 h [2]: 65.8%
remaining at 0.5 h [3]: 82.1%
remaining at 0.5 h [4]: 98.6%
remaining at 0.5 h [5]: 97.3%

COc1ccnc(S(=O)(=O)/C=C/c2ccc(Cl)cc2)c1
EC50 [1]: 1220 nM
activity at 10 µM (CYP1A2): 49%
activity at 10 µM (CYP3A4): 85.8%
activity at 10 µM (CYP2C9): > 99%
activity at 10 µM (CYP2C19): 10.5%
activity at 10 µM (CYP2D6): 98.5%
remaining at 0.5 h [2]: 37.8%
remaining at 0.5 h [3]: 18.8%
remaining at 0.5 h [4]: > 99%
remaining at 0.5 h [5]: > 99%

COc1ccc(S(=O)(=O)/C=C/c2ncccc2C(F)(F)F)nc1
EC50 [1]: 275 nM
activity at 10 µM (CYP1A2): 61.1%
activity at 10 µM (CYP3A4): 88.9%
activity at 10 µM (CYP2C9): > 99%
activity at 10 µM (CYP2C19): 21.7%
activity at 10 µM (CYP2D6): > 99%
remaining at 0.5 h [2]: 57.2%
remaining at 0.5 h [3]: 60.1%
remaining at 0.5 h [4]: 96.2%
remaining at 0.5 h [5]: 91.9%

COc1cccnc1S(=O)(=O)/C=C/c1ccccc1C(F)(F)F
EC50 [1]: 146 nM
activity at 10 µM (CYP1A2): 71.2%
activity at 10 µM (CYP3A4): 76%
activity at 10 µM (CYP2C9): 79.2%
activity at 10 µM (CYP2C19): 59.1%
activity at 10 µM (CYP2D6): 99.1%
remaining at 0.5 h [2]: 52.9%
remaining at 0.5 h [3]: 17.8%
remaining at 0.5 h [4]: 96.8%
remaining at 0.5 h [5]: 93.5%

COc1ccc(S(=O)(=O)/C=C/c2ccccc2C(F)(F)F)nc1
EC50 [1]: 245 nM
activity at 10 µM (CYP1A2): 27.8%
activity at 10 µM (CYP3A4): 58%
activity at 10 µM (CYP2C9): > 99%
activity at 10 µM (CYP2C19): 3.7%
activity at 10 µM (CYP2D6): 100%
remaining at 0.5 h [2]: 31.7%
remaining at 0.5 h [3]: 2.7%
remaining at 0.5 h [4]: 99%
remaining at 0.5 h [5]: 94.7%

COc1ccnc(S(=O)(=O)/C=C/c2ccncc2Cl)c1
EC50 [1]: 32 nM
activity at 10 µM (CYP1A2): 29.9%
activity at 10 µM (CYP3A4): 70.2%
activity at 10 µM (CYP2C9): > 99%
activity at 10 µM (CYP2C19): 22.4%
activity at 10 µM (CYP2D6): 69.8%
remaining at 0.5 h [2]: 77.3%
remaining at 0.5 h [3]: 50.4%
remaining at 0.5 h [4]: 83.6%
remaining at 0.5 h [5]: 43.4%

COc1ccnc(S(=O)(=O)/C=C/c2cccnc2Cl)c1
EC50 [1]: 49 nM
activity at 10 µM (CYP1A2): 81%
activity at 10 µM (CYP3A4): 91.5%
activity at 10 µM (CYP2C9): > 99%
activity at 10 µM (CYP2C19): 30.2%
activity at 10 µM (CYP2D6): 99.8%
remaining at 0.5 h [2]: 76.6%
remaining at 0.5 h [3]: 61.4%
remaining at 0.5 h [4]: 99%
remaining at 0.5 h [5]: 91.9%

COc1ccnc(S(=O)(=O)/C=C/c2cccc(Cl)c2)c1
EC50 [1]: 824 nM
activity at 10 µM (CYP1A2): 63.4%
activity at 10 µM (CYP3A4): 38.2%
activity at 10 µM (CYP2C9): > 99%
activity at 10 µM (CYP2C19): 7%
activity at 10 µM (CYP2D6): 97.2%
remaining at 0.5 h [2]: 54.6%
remaining at 0.5 h [3]: 8.7%
remaining at 0.5 h [4]: > 99%
remaining at 0.5 h [5]: 94.7%

COc1cccc(S(=O)(=O)/C=C/c2ccccc2C(F)(F)F)n1
EC50 [1]: 316 nM
activity at 10 µM (CYP1A2): 4.9%
activity at 10 µM (CYP3A4): 30.6%
activity at 10 µM (CYP2C9): 71%
activity at 10 µM (CYP2C19): 13.2%
activity at 10 µM (CYP2D6): 91.7%
remaining at 0.5 h [2]: 19.3%
remaining at 0.5 h [3]: 6%
remaining at 0.5 h [4]: 98.4%
remaining at 0.5 h [5]: 91.8%
